Experimental data from PMC9950073, “Alleviation of arthritis through prevention of neutrophil extracellular traps by an orally available inhibitor of protein arginine deiminase 4” (Scientific Reports, 2023).

Key:
human recombinant PAD3 = target: T1, human recombinant PAD3 (Homo sapiens, UniProt Q9ULW8); experiment: PAD3 selectivity biochemical assay measuring ammonia release; settings: 10 semi-log concentrations, highest concentration tested 30 µM
T1 construct: purchased Cayman Chemicals 10786
T1 sequence (Q9ULW8 1-664): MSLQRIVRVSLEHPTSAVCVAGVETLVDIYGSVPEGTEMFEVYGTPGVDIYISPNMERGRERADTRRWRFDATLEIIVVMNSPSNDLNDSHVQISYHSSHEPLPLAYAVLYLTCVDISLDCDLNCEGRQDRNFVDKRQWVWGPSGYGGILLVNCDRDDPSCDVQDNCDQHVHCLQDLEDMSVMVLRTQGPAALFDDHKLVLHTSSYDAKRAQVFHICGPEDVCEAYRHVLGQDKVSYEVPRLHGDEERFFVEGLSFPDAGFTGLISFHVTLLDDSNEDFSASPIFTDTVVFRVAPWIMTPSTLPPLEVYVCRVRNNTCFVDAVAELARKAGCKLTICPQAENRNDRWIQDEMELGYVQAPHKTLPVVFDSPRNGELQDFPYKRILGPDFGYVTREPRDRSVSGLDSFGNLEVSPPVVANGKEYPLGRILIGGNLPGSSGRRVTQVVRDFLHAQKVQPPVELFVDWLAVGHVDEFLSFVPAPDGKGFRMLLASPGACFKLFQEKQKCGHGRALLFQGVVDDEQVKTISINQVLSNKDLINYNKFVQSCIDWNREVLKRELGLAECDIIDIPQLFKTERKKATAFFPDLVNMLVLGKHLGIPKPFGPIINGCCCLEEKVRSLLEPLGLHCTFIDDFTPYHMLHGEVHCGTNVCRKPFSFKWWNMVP

[1] = Microsomal stability, RLM; format: in vitro ADME, rat; settings: 1 µM, liver microsomes 0.5 mg/mL; one range given for HLM/MLM/DLM/RLM
Method: Microsomal stability: Liver microsomes (0.5 mg/mL) from different species were incubated with JBI-589 (1 µM) with or without NADPH (1 mM) at 37 °C for 30 min in potassium phosphate buffer (pH 7.4) and then reaction was stopped with quenching solution (0.5% Formic acid in internal standard (IS) containing ACN). Resulting samples were centrifuged and supernatant was taken for LC–MS/MS analysis. Percent metabolism was calculated as follows: % Metabolized: [1 − (test area ratio/control area ratio)] *100.

## Cc1c(-c2cc3ccccc3n2Cc2ccc(F)cc2)nc2cc(C(=O)N3CCC[C@@H](N)C3)ccn12 [JBI-589, (R)-(3-aminopiperidin-1-yl)(2-(1-(4-fluorobenzyl)-1H-indol-2-yl)-3-methylimidazo[1,2-a]pyridin-7-yl)methanone]
Human recombinant PAD3
  inhibitory activity against PAD3: did not have any inhibitory activity
[1]
  RLM % metabolized @ 30 min: 25-50%
